From patent publication US20120107601A1, “SYSTEMS AND METHODS OF TEMPLATING USING PARTICLES SUCH AS COLLOIDAL PARTICLES” (President and Fellows of Harvard College, priority 2009, published 2012) come the findings set out here.

SMILES strings stand for the structures.

How the values of the data set were obtained: To ensure that the introduction of the hydrophobic compounds into the template structure would not lead to rearrangement of the particles in the 3D array, some of the templates were sintered prior to the introduction step. Sintering temperatures between 700 and 1200° C. were used to evaluate the conditions needed to form strong interparticle necks without distorting the initial packed structure. Sintering was accomplished under a O2 gas flow of 0.7 L/min (Thermo Scientific Lindberg Blue M Three-Zone Tube Furnace, Cole-Parmer, Vernon Hills, Ill., USA) applying a dwell time period of 2 hours. Introduction of the hydrophobic compounds into the interstices of the packed array of particles was accomplished by first placing the template on a hot plate at a predetermined temperature and afterwards depositing the powdery hydrophobic compound on the top of the heated template. The temperature of the hot plate was adjusted to enable melting of the hydrophobic compound on the template surface. Once in liquid form, the compound was sucked into the interstices of the template structure by capillary forces. […] After fluid introduction, the templates were removed from the hot plate and cooled in air at ambient temperature. The fluid-introduced templates were finally fractured to enable evaluation of the fluid-introduction efficiency in an electron microscope.
Drug-template composites were prepared in the following manner. Templates were prepared from an aqueous colloidal dispersion using the slip-casting method described previously. After slip-casting, the templates were dried in an oven at 110° C. for 12 hours. The templates were then placed on a hotplate at a temperature approximately 5° C. to 10° C. above the melting point of the drug. A small amount of the raw crystalline drug was placed on the surface of the hot template. As the drug was melted, it was drawn into the template by capillary action. These steps were repeated until the template was filled completely. […] The drug-template composites were prepared for dissolution by mild grinding of the sample with a hand-held mortar and pestle.
The samples were prepared for NMR by the following procedure. Unprocessed, crystalline powders (BASF) were dissolved in deuterated solvents at a concentration of approximately 10 mg/mL and filtered through a 0.2 micrometer PTFE filter to remove any solid impurities before running NMR measurements. Drug-silica composites were ground using a hand-held mortar and pestle, dissolved in deuterated solvents at a (drug) concentration of approximately 10 mg/mL and filtered through a 0.2 micrometer PTFE filter to remove the silica template and any additional solid impurities before running NMR measurements. […] Estradiol was dissolved in deuterated DMSO. […] It is, therefore, to be understood that the foregoing embodiments are presented by way of example only and that, within the scope of the appended claims and equivalents thereto, the invention may be practiced otherwise than as specifically described and claimed. The present invention is directed to each individual feature, system, article, material, kit, and/or method described herein. In addition, any combination of two or more such features, systems, articles, materials, kits, and/or methods, if such features, systems, articles, materials, kits, and/or methods are not mutually inconsistent, is included within the scope of the present invention.
Consider `Clc1ccccc1C(c1ccccc1)(c1ccccc1)n1ccnc1` [chlotrimazole], for which the stability upon melting result is listed as “stable upon melting”; the “visible color change upon melting and infiltration into the composites” value is reported as “no visible color change”. For `C(=C\c1ccccc1)/CN1CCN(C(c2ccccc2)c2ccccc2)CC1` [cinnarizine], the “melting without decomposition (introduction of molten compound into templates)” value is on record as “can be melted without decomposition” and the stability upon melting entry is reported as “stable upon melting”. `C[C@]12CC[C@@H]3c4ccc(O)cc4CC[C@H]3[C@@H]1CC[C@@H]2O` [estradiol]: the stability upon melting result was “stable upon melting”; the “visible color change upon melting and infiltration into the composites” value is “no visible color change”. As to `CC(C)OC(=O)C(C)(C)Oc1ccc(C(=O)c2ccc(Cl)cc2)cc1` [fenofibrate], the “melting without decomposition (introduction of molten compound into templates)” value is recorded as “can be melted without decomposition”. On to `CCC(C)n1ncn(-c2ccc(N3CCN(c4ccc(OCC5COC(Cn6cncn6)(c6ccc(Cl)cc6Cl)O5)cc4)CC3)cc2)c1=O` (centres unmarked) [itraconazole], for which the stability upon melting entry was “stable upon melting”; the “visible color change upon melting and infiltration into the composites” value is recorded as “no visible color change”. On the same counts, the results for `CC(=O)N1CCN(c2ccc(OCC3COC(Cn4ccnc4)(c4ccc(Cl)cc4Cl)O3)cc2)CC1` (centres unmarked) [ketoconazole] are “stable upon melting” and “no visible color change”.
